Measurements as given in US20260262643A1, “HERBICIDAL BENZOXAZINES” (FMC CORPORATION, priority 2022, published 2026).

Legend:
[1] = system: foxtail, giant; assay: Test A postemergence; assay type: in vivo, Setaria faberi
Method in brief: (§1)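 Visual injury ratings on a 0–100 scale (100 = complete control) versus untreated controls, taken 10 days after treatment in greenhouse. Preemergence: directed soil spray onto seeded loam/sand. Postemergence: foliar application at one- to two-leaf stage, plants 2–10 cm. Formulation: non-phytotoxic solvent plus surfactant.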

[2] = system: oat, wild; assay: Test A preemergence; assay type: in vivo, Avena fatua
Excerpt: Seeds of plant species selected from barnyardgrass (Echinochloa crusgalli), blackgrass (Alopecurus myosuroides), corn (Zea mays), foxtail, giant (giant foxtail, Setaria faberi), goosegrass (Eleusine indica), kochia (Bassia scoparia), oat, wild (wild oat, Avena fatua), pigweed, palmer (palmer amaranth, palmer pigweed, Amaranthus palmeri), Pigweed, Redroot (redroot pigweed, Amaranthus retroflexus), ragweed (common ragweed, Ambrosia artemisiifolia), ryegrass, Italian (italian ryegrass, Lolium multiflorum), soybean (Glycine max), and wheat (Triticum aestivum) were planted into a blend of loam soil and sand and treated preemergence with a directed soil spray using test chemicals formulated in a non-phytotoxic solvent mixture which included a surfactant. At the same time, plants selected from these crops and weed species and also galium (catchweed bedstraw, Galium aparine) and horseweed (Erigeron canadensis) were planted in pots containing the same blend of loam soil and sand and treated with postemergence applications of test chemicals formulated in the same manner. Plants ranged in height from 2 to 10 cm and were in the one- to two-leaf stage for the postemergence treatment. Treated plants and untreated controls were maintained in a greenhouse for 10 days, after which time all treated plants were compared to untreated controls and visually evaluated for injury. Plant response ratings, summarized in Table A, are based on a 0 to 100 scale where 0 is no effect and 100 is complete control. A dash (-) response means no test result.

[3] = system: blackgrass; assay: Test A postemergence; assay type: in vivo, Alopecurus myosuroides
Method in brief: as §1

[4] = system: goosegrass; assay: Test A postemergence; assay type: in vivo, Eleusine indica
Method in brief: as §1

[5] = system: kochia; assay: Test A postemergence; assay type: in vivo, Bassia scoparia
Method in brief: as §1

[6] = system: ragweed; assay: Test A postemergence; assay type: in vivo, Ambrosia artemisiifolia
Method in brief: as §1

[7] = system: barnyardgrass; assay: Test B flooded paddy test; assay type: in vivo, Echinochloa crus-galli; settings: 250 g ai/ha, Flood, 13 days, 0 to 100 scale (0 no effect, 100 complete control)
Method in brief: (§2)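 Two-leaf plants, 3 cm flood, in-water application, 13-day greenhouse hold, visual 0–100 rating vs untreated checks.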

[8] = system: corn; assay: Test A preemergence; assay type: in vivo, Zea mays
Method in brief: as §1

[9] = system: soybean; assay: Test A preemergence; assay type: in vivo, Glycine max; settings: 500 g ai/ha, 0 to 100 scale (0 no effect, 100 complete control), 10 days
Method in brief: as §1

[10] = system: pigweed, palmer; assay: Test A preemergence; assay type: in vivo, Amaranthus palmeri
Method in brief: as §1

[11] = system: ryegrass, Italian; assay: Test A postemergence; assay type: in vivo, Lolium multiflorum
Method in brief: as §1

[12] = system: rice; assay: Test B flooded paddy test; assay type: in vivo, Oryza sativa; settings: 250 g ai/ha, Flood, 13 days, 0 to 100 scale (0 no effect, 100 complete control)
Method in brief: as §2

[13] = system: wheat; assay: Test A preemergence; assay type: in vivo, Triticum aestivum
Method in brief: as §1

[14] = system: sedge, umbrella; assay: Test B flooded paddy test; assay type: in vivo, Cyperus difformis; settings: 250 g ai/ha, Flood, 13 days, 0 to 100 scale (0 no effect, 100 complete control)
Method in brief: as §2

[15] = system: wheat; assay: Test A postemergence; assay type: in vivo, Triticum aestivum
Method in brief: as §1

[16] = system: corn; assay: Test A postemergence; assay type: in vivo, Zea mays
Method in brief: as §1

[17] = system: ragweed; assay: Test A preemergence; assay type: in vivo, Ambrosia artemisiifolia
Method in brief: as §1

[18] = system: kochia; assay: Test A preemergence; assay type: in vivo, Bassia scoparia
Method in brief: as §1

[19] = system: ducksalad; assay: Test B flooded paddy test; assay type: in vivo, Heteranthera limosa; settings: 250 g ai/ha, Flood, 13 days, 0 to 100 scale (0 no effect, 100 complete control)
Method in brief: as §2

[20] = system: galium; assay: Test A postemergence; assay type: in vivo, Galium aparine
Method in brief: as §1

[21] = system: oat, wild; assay: Test A postemergence; assay type: in vivo, Avena fatua
Method in brief: as §1

[22] = system: goosegrass; assay: Test A preemergence; assay type: in vivo, Eleusine indica
Method in brief: as §1

[23] = system: foxtail, giant; assay: Test A preemergence; assay type: in vivo, Setaria faberi
Method in brief: as §1

[24] = system: blackgrass; assay: Test A preemergence; assay type: in vivo, Alopecurus myosuroides
Method in brief: as §1

[25] = system: ryegrass, Italian; assay: Test A preemergence; assay type: in vivo, Lolium multiflorum
Method in brief: as §1

[26] = system: pigweed, palmer; assay: Test A postemergence; assay type: in vivo, Amaranthus palmeri
Method in brief: as §1

[27] = system: soybean; assay: Test A postemergence; assay type: in vivo, Glycine max
Method in brief: as §1

[28] = 125 g ai/ha, postemergence, 10 days, visual injury, 0 to 100 scale (0 no effect, 100 complete control)
[29] = 500 g ai/ha, Postemergence, 0 to 100 scale
[30] = 125 g ai/ha, visual injury after 10 days, 0 to 100 scale, 0 is no effect, 100 is complete control
[31] = 500 g ai/ha, 0 to 100 scale (0 no effect, 100 complete control), 10 days

CCc1cccc2c1OC(C)CN2C(=O)c1cccc(-n2cncn2)c1 (stereo not shown) [Compound 43]
Plant response rating, Foxtail, Giant [1, 28]: 10
Plant response rating, Foxtail, Giant [1, 29]: 70
Plant response rating, Oat, Wild [2, 30]: 20
Plant response rating, Oat, Wild [2, 31]: 90
Plant response rating, Blackgrass [3, 28]: 0
Plant response rating, Blackgrass [3, 29]: 0
Plant response rating, Goosegrass [4, 28]: 0
Plant response rating, Goosegrass [4, 29]: 40
Plant response rating, Kochia [5, 28]: 10
Plant response rating, Kochia [5, 29]: 30
Plant response rating, Ragweed [6, 28]: 0
Plant response rating, Ragweed [6, 29]: 0
Plant response rating, Barnyardgrass [7]: 0
Plant response rating, Corn [8, 30]: 10
Plant response rating, Corn [8, 31]: 20
Plant response rating, Soybean [9]: 40
Plant response rating, Pigweed, Palmer [10, 30]: 0
Plant response rating, Pigweed, Palmer [10, 31]: 80
Plant response rating, Ryegrass, Italian [11, 28]: 30
Plant response rating, Ryegrass, Italian [11, 29]: 60
Plant response rating, Rice [12]: 0
Plant response rating, Wheat [13, 30]: 0
Plant response rating, Wheat [13, 31]: 10
Plant response rating, Sedge, Umbrella [14]: 0
Plant response rating, Wheat [15, 28]: 10
Plant response rating, Wheat [15, 29]: 30
Plant response rating, Corn [16, 28]: 10
Plant response rating, Corn [16, 29]: 30
Plant response rating, Ragweed [17, 30]: 0
Plant response rating, Ragweed [17, 31]: 20
Plant response rating, Kochia [18, 30]: 0
Plant response rating, Kochia [18, 31]: 0
Plant response rating, Ducksalad [19]: 0
Plant response rating, Galium [20, 28]: 30
Plant response rating, Galium [20, 29]: 60
Plant response rating, Oat, Wild [21, 28]: 0
Plant response rating, Oat, Wild [21, 29]: 20
Plant response rating, Goosegrass [22, 30]: 60
Plant response rating, Goosegrass [22, 31]: 90
Plant response rating, Foxtail, Giant [23, 30]: 60
Plant response rating, Foxtail, Giant [23, 31]: 90
Plant response rating, Blackgrass [24, 30]: 10
Plant response rating, Blackgrass [24, 31]: 40
Plant response rating, Ryegrass, Italian [25, 30]: 60
Plant response rating, Ryegrass, Italian [25, 31]: 90
Plant response rating, Pigweed, Palmer [26, 28]: 50
Plant response rating, Pigweed, Palmer [26, 29]: 20
Plant response rating, Soybean [27, 28]: 80
Plant response rating, Soybean [27, 29]: 100
